In brackets after ≈: the same amount, converted by molar mass.
How the values were obtained:
[1] = system: Bacillus subtilis NCTC 8241; experiment: Antibacterial in vitro activity in comparison with azithromycin (Table 3); type: cell-based; settings: Bacillus subtilis, NCTC8241; Brain hearth Bouillon, 24-48 hours, 37° C., inoculum 10^-5 -10^-6 cfu/mL
Excerpt: (§1) In Table 3 there are represented in vitro tests of 6-O-methyl- (Ii), 6,11-di-O-methyl- (Ij), 11-O-methyl- (Ik) and 6,11,4"-tri-O-methyl-azithromycin A (II) in comparison with azithromycin.

[2] = system: Corynebacterium xerosis NCTC 9755; experiment: as above; type: cell-based; settings: NCTC9755, Brain hearth Bouillon, 24-48 hours, 37° C., inoculum 10^-5 -10^-6 cfu/mL
Excerpt: as §1

ATCC 8043 = experiment: as above; type: cell-based; settings: Staphylococcus faecalis, ATCC8043; Brain hearth Bouillon, 24-48 hours, 37° C., inoculum 10^-5 -10^-6 cfu/mL
Excerpt: as §1

ATCC 10240 = experiment: as above; type: cell-based; settings: Brain hearth Bouillon, 24-48 hours, 37° C., inoculum 10^-5 -10^-6 cfu/mL
Excerpt: as §1

[3] = system: Pseudomonas aeruginosa NCTC 10490; experiment: as above; type: cell-based; settings: NCTC10490, Brain hearth Bouillon, 24-48 hours, 37° C., inoculum 10^-5 -10^-6 cfu/mL
Excerpt: as §1

Sarcina lutea ATCC 9341 = experiment: as above; type: cell-based; settings: Micrococcus luteus, ATCC9341; Brain hearth Bouillon, 24-48 hours, 37° C., inoculum 10^-5 -10^-6 cfu/mL
Excerpt: as §1

[4] = system: Bacillus cereus NCTC 10320; experiment: as above; type: cell-based; settings: NCTC10320, Brain hearth Bouillon, 24-48 hours, 37° C., inoculum 10^-5 -10^-6 cfu/mL
Excerpt: as §1

[5] = system: Bacillus pumilus NCTC 8241; experiment: as above; type: cell-based; settings: NCTC8241, Brain hearth Bouillon, 24-48 hours, 37° C., inoculum 10^-5 -10^-6 cfu/mL
Excerpt: as §1

[6] = system: Staphylococcus epidermidis ATCC 12228; experiment: as above; type: cell-based; settings: ATCC12228, Brain hearth Bouillon, 24-48 hours, 37° C., inoculum 10^-5 -10^-6 cfu/mL
Excerpt: as §1

[7] = system: Escherichia coli ATCC 10536; experiment: as above; type: cell-based; settings: ATCC10536, Brain hearth Bouillon, 24-48 hours, 37° C., inoculum 10^-5 -10^-6 cfu/mL
Excerpt: as §1

ATCC 6538P = experiment: as above; type: cell-based, Staphilococcus aureus
Excerpt: as §1

[8] = versus erythromycin A; cited from earlier work
[9] = system: gram-negative microorganisms; settings: in comparison with the parent antibiotic (erythromycin A); cited from earlier work
[10] = in comparison with the parent antibiotic (erythromycin A); cited from earlier work
[11] = system: gram-positive microorganisms; settings: in comparison to erythromycin A; cited from earlier work

SMILES	MIC [1]	MIC [2]	MIC (ATCC 8043)	MIC (ATCC 10240)	MIC [3]	MIC (Sarcina lutea ATCC 9341)	MIC [4]	MIC [5]	MIC [6]	MIC [7]	MIC (ATCC 6538P)	stability in acidic medium in comparison with the parent antibiotic [8]	in vitro activity against gram-negative microorganisms [9]	concentration in the tissues [10]	in vitro activity against gram-positive microorganisms [11]
CC[C@H]1OC(=O)[C@H](C)[C@@H](O[C@H]2C[C@@](C)(OC)[C@@H](O)[C@H](C)O2)[C@H](C)[C@@H](O[C@@H]2O[C@H](C)C[C@H](N(C)C)[C@H]2O)[C@](C)(O)C[C@@H](C)CN(C)[C@H](C)[C@@H](O)[C@]1(C)O [azithromycin, N-methyl-11-aza-10-deoxo-10-dihydroerythromycin A (9-deoxo-9a-aza-9a-methyl-9a-homoerythromycin A)]	0.39 µg/mL (≈ 0.521 µM)	6.25 µg/mL (≈ 8.34 µM)	0.05 µg/mL (≈ 0.0668 µM)	0.39 µg/mL (≈ 0.521 µM)	100 µg/mL (≈ 134 µM)	0.05 µg/mL (≈ 0.0668 µM)	0.39 µg/mL (≈ 0.521 µM)	0.2 µg/mL (≈ 0.267 µM)	0.1 µg/mL (≈ 0.134 µM)	0.78 µg/mL (≈ 1.04 µM)	1.56 µg/mL (≈ 2.08 µM)	improved stability in acidic medium	improved in vitro activity against gram-negative microorganisms	significantly higher conncentration in the tissues	–
CC[C@H]1OC(=O)[C@H](C)[C@@H](O[C@H]2C[C@@](C)(OC)[C@@H](O)[C@H](C)O2)[C@H](C)[C@@H](O[C@@H]2O[C@H](C)C[C@H](N(C)C)[C@H]2O)[C@](C)(OC)C[C@@H](C)C(=O)[C@H](C)[C@@H](O)[C@]1(C)O [clarithromycin, 6-O-methyl-erythromycin A]	–	–	–	–	–	–	–	–	–	–	–	–	–	–	improved in vitro activity against gram-positive microorganisms
